Laboratory results published in PubChem BioAssay (NCI).
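Five compound concentrations were applied to cells in 96-well plates for 48 hours; endpoints were derived by simple linear interpolation of the resulting dose-response curve. TGI marks complete inhibition of growth.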

What was measured:
Experiment in all cases: DTP human tumour cell line panel, 48 h
[1] = test system: ACHN renal
[2] = test system: SF-295 CNS
[3] = test system: MALME-3M melanoma
[4] = test system: RXF 393 renal
[5] = test system: HCT-116 colon
[6] = test system: KM12 colon
[7] = test system: IGROV1 ovarian
[8] = test system: UO-31 renal
[9] = test system: SW-620 colon
[10] = test system: LOX IMVI melanoma
[11] = test system: MOLT-4 leukemia
[12] = test system: OVCAR-8 ovarian
[13] = test system: HOP-62 NSCLC
[14] = test system: SF-268 CNS
[15] = test system: UACC-257 melanoma
[16] = test system: SNB-75 CNS
[17] = test system: UACC-62 melanoma
[18] = test system: SF-539 CNS
[19] = test system: SK-MEL-28 melanoma
[20] = test system: NCI-H460 lung
[21] = test system: HT29 colon
[22] = test system: SK-MEL-5 melanoma
[23] = test system: A498 renal
[24] = test system: PC-3 prostate
[25] = test system: HS 578T breast
[26] = test system: OVCAR-4 ovarian
[27] = test system: MDA-N
[28] = test system: M14 melanoma
[29] = test system: OVCAR-3 ovarian
[30] = test system: NCI-H522 lung
[31] = test system: CAKI-1 renal
[32] = test system: HOP-92 NSCLC
[33] = test system: NCI/ADR-RES ovarian
[34] = test system: SN12C renal
[35] = test system: HCT-15 colon
[36] = test system: MDA-MB-435
[37] = test system: TK-10 renal
[38] = test system: U251 CNS
[39] = test system: SNB-19 CNS
[40] = test system: OVCAR-5 ovarian
[41] = test system: K-562 leukemia
[42] = test system: NCI-H23 lung
[43] = test system: COLO 205 colon
[44] = test system: 786-0 renal
[45] = test system: BT-549 breast
[46] = test system: SK-OV-3 ovarian
[47] = test system: MDA-MB-231 breast
[48] = test system: DU-145 prostate
[49] = test system: HCC-2998 colon
[50] = test system: SR leukemia
[51] = test system: SK-MEL-2 melanoma
[52] = test system: NCI-H226 lung
[53] = test system: MCF7 breast
[54] = test system: CCRF-CEM leukemia
[55] = test system: A549 NSCLC
[56] = test system: RPMI-8226 leukemia
[57] = test system: EKVX NSCLC

`COc1c(C)c(OC)c2c(c1O)[C@@H]1[C@@H]3Cc4c(OC)c(C)c(OC)c(O)c4[C@H](CNC(=O)c4ccc5ccccc5n4)N3[C@@H](C#N)[C@H](C2)N1C` was tested, and the TGI [1] was over 0.1 µM, the TGI [2] was over 0.0214 µM and the TGI [3] was 0.000743 µM. For the same molecule, the TGI [4] was 0.00347 µM, the TGI [5] was 0.00585 µM and the TGI [6] was 0.00227 µM. The TGI [7] was 0.000858 µM, the TGI [8] was 0.00879 µM and the TGI [9] was 0.00251 µM. For the same molecule, the TGI [10] was over 0.1 µM, the TGI [11] was 0.0144 µM and the TGI [12] was over 0.1 µM. For the same molecule, the TGI [13] was 0.0104 µM, the TGI [14] was 0.0305 µM and the TGI [15] was 0.00546 µM. The TGI [16] was 0.0143 µM, the TGI [17] was 0.00236 µM and the TGI [18] was 0.00774 µM. For the same molecule, the TGI [19] was 0.00592 µM, the TGI [20] was over 0.0901 µM and the TGI [21] was 0.00491 µM. The TGI [22] was 0.00186 µM, the TGI [23] was 0.00411 µM and the TGI [24] was over 0.0514 µM. The TGI [25] was 0.00741 µM, the TGI [26] was 0.00742 µM and the TGI [27] was 0.00283 µM. The TGI [28] was 0.00267 µM, the TGI [29] was 0.0023 µM and the TGI [30] was 0.000444 µM. It also gave a TGI [31] of 0.0384 µM, a TGI [32] of 0.00322 µM and a TGI [33] of over 0.052 µM. For the same molecule, the TGI [34] was over 0.1 µM, the TGI [35] was over 0.0597 µM and the TGI [36] was 0.00438 µM. For the same molecule, the TGI [37] was 0.0023 µM, the TGI [38] was over 0.1 µM and the TGI [39] was over 0.1 µM. It also gave a TGI [40] of 0.00353 µM, a TGI [41] of over 0.1 µM and a TGI [42] of 0.00187 µM. For the same molecule, the TGI [43] was over 0.1 µM, the TGI [44] was 0.00791 µM and the TGI [45] was 0.00172 µM. It also gave a TGI [46] of over 0.1 µM, a TGI [47] of over 0.0276 µM and a TGI [48] of over 0.0296 µM. For the same molecule, the TGI [49] was 0.0007 µM, the TGI [50] was 0.000329 µM and the TGI [51] was 0.000832 µM. The TGI [52] was 0.00571 µM and the TGI [53] was over 0.1 µM.

Molecule `CCOC(=O)CC1c2ccc(O)cc2OC(=O)C1c1ccc(N)cc1` (stereo not drawn) has a TGI [1] of over 100 µM, a TGI [54] of over 100 µM and a TGI [2] of over 100 µM. It also gave a TGI [3] of over 100 µM, a TGI [4] of over 100 µM and a TGI [5] of over 100 µM. It also gave a TGI [6] of over 100 µM, a TGI [7] of over 100 µM and a TGI [8] of over 100 µM. For the same molecule, the TGI [9] was over 100 µM, the TGI [10] was over 100 µM and the TGI [11] was over 100 µM. For the same molecule, the TGI [12] was over 100 µM, the TGI [13] was over 100 µM and the TGI [14] was over 100 µM. For the same molecule, the TGI [15] was over 100 µM, the TGI [16] was over 100 µM and the TGI [17] was over 100 µM. The TGI [18] was over 100 µM, the TGI [19] was over 100 µM and the TGI [20] was over 100 µM. For the same molecule, the TGI [21] was over 100 µM, the TGI [22] was over 100 µM and the TGI [23] was over 100 µM. It also gave a TGI [24] of over 100 µM, a TGI [25] of over 100 µM and a TGI [55] of over 100 µM. The TGI [27] was over 100 µM, the TGI [28] was over 100 µM and the TGI [29] was over 100 µM. It also gave a TGI [30] of over 100 µM, a TGI [31] of over 100 µM and a TGI [33] of over 100 µM. For the same molecule, the TGI [34] was over 100 µM, the TGI [35] was over 100 µM and the TGI [56] was over 100 µM. For the same molecule, the TGI [36] was over 100 µM, the TGI [57] was over 100 µM and the TGI [37] was over 100 µM. It also gave a TGI [38] of over 100 µM, a TGI [39] of over 100 µM and a TGI [41] of over 100 µM. For the same molecule, the TGI [42] was over 100 µM, the TGI [43] was over 100 µM and the TGI [44] was over 100 µM. The TGI [45] was over 100 µM, the TGI [46] was over 100 µM and the TGI [47] was over 100 µM. For the same molecule, the TGI [48] was over 100 µM, the TGI [49] was over 100 µM and the TGI [50] was over 100 µM. It also gave a TGI [51] of over 100 µM, a TGI [52] of over 100 µM and a TGI [53] of over 100 µM.

`COc1cccc(NC(=O)c2c(SC)c(C#N)c(=O)n(N)c2N)c1` was tested, and the TGI [1] was over 100 µM, the TGI [54] was over 100 µM and the TGI [2] was over 100 µM. It also gave a TGI [3] of over 100 µM, a TGI [4] of over 100 µM and a TGI [5] of over 100 µM. For the same molecule, the TGI [6] was over 100 µM, the TGI [7] was over 100 µM and the TGI [9] was over 100 µM. It also gave a TGI [10] of over 100 µM, a TGI [11] of over 100 µM and a TGI [12] of over 100 µM. It also gave a TGI [13] of over 100 µM, a TGI [14] of over 100 µM and a TGI [15] of over 100 µM. It also gave a TGI [16] of 81.3 µM, a TGI [17] of over 100 µM and a TGI [18] of over 100 µM. The TGI [19] was over 100 µM, the TGI [20] was over 100 µM and the TGI [21] was over 100 µM. It also gave a TGI [22] of over 100 µM, a TGI [23] of over 100 µM and a TGI [24] of over 100 µM. It also gave a TGI [25] of over 100 µM, a TGI [55] of over 100 µM and a TGI [26] of over 100 µM. The TGI [27] was over 100 µM, the TGI [28] was over 100 µM and the TGI [30] was over 100 µM. It also gave a TGI [31] of over 100 µM, a TGI [32] of over 100 µM and a TGI [33] of over 100 µM. The TGI [34] was over 100 µM, the TGI [35] was over 100 µM and the TGI [36] was over 100 µM. It also gave a TGI [57] of over 100 µM, a TGI [37] of over 100 µM and a TGI [38] of over 100 µM. It also gave a TGI [39] of 98.6 µM, a TGI [40] of over 100 µM and a TGI [41] of over 100 µM. It also gave a TGI [43] of over 100 µM, a TGI [44] of over 100 µM and a TGI [45] of over 100 µM. It also gave a TGI [46] of over 100 µM, a TGI [47] of over 100 µM and a TGI [49] of over 100 µM. For the same molecule, the TGI [51] was over 100 µM, the TGI [52] was over 100 µM and the TGI [53] was over 100 µM.
